Entries after “also recorded” stand apart in the source; their conditions may differ. Where two headings read alike, the source gives them in different places.
Columns and labels:
[1] = system: CHO (Chinese hamster ovarian cells); test: SRB cell proliferation assay, CHO; type: cell-based; details: Cricetulus griseus; CHO = Chinese hamster ovarian cells (Table 3); read-out: IC50 μM CHO
Experimental: (§1) Cell proliferation was assessed using the sulforhodamine B (SRB) assay. Cells seeded in 96-well plate (2,000-3,000 cell/well) were treated with MPL (0, 1, 5, 10, 25, 50 and 100 μmol/L) for 72 h. Cells were then fixed, washed and stained with 100 μl of 0.4% (w/v) SRB dissolved in 1% acetic acid. Unbound dye was removed by five washes with 1% acetic acid before air drying. Bound SRB was solubilized with 100 μl of 10 mM Tris base (pH 10.5) and the absorbance read at 570 nm. Exactly the same procedure was used to assess MPL-SO2. Both agents were dissolved in ethanol and diluted with media to give the final concentrations required for cell culture assays.

SKOV-3 cells = test: SRB cell proliferation assay, SKOV-3; type: cell-based; details: Homo sapiens, SK-OV-3
Experimental: as §1

[2] = system: Normal cells HOSE, CHO, HEK and HUVEC; test: Cell viability assay (Trypan blue), normal cells; type: cell-based; details: MPL 0, 5, 10, 25 μmol/L, 72 h
Experimental: Normal cells HOSE, CHO, HEK and HUVEC were cultured in the presence of MPL (0, 5, 10, 25, μmol/L) for 72 h. Effect of MPL on cell viability was assessed using the standard Trypan blue assay. Results are presented as mean±SEM compared to control (100%).
For viability experiments, cells seeded in 6 well plates were exposed to monepantel (MPL) at 0, 1, 10, 50 and 100 μM concentrations for 24, 48 or 72 h. Monepantel (gift by Novartis, Basel, Switzerland) was dissolved in 100% ethanol and then diluted with the cell culture media. At the end of treatment period, cells were washed with PBS, trypsinized and counted using Trypan blue and hemocytometer. All experimental points were set up in quadruplicate and each experiment was performed at least twice.
In brief, MPL and MPL-SO2 were tested in vitro against a wide range of cancer cell-lines with extensively different disease characteristics. For further detailed studies, human ovarian cancer cell lines OVCAR-3 and A2780 were chosen. […] Cell viability was assessed using Trypan blue assay (FIG. 9). Similarly, effect of MPL on the growth of normal epithelial, endothelial, embryonic and fetal cells were investigated (FIG. 10) while cell proliferation was assessed using the SRB assay (FIG. 11). Control (vehicle treated) cells were taken to present 100% proliferation and the MPL treated groups are expressed as percentage of control±SEM. […]

[3] = system: HEK (Human Embryonic Kidney); test: SRB cell proliferation assay, HEK; type: cell-based
Experimental: as §1

OVCAR-3 tumors = test: s.c. OVCAR-3 xenograft growth in nude mice; type: in vivo, female nude mice
Experimental: 2.5 million log-phase growing OVCAR-3 cells were injected s.c. into the left flank of each mouse. Tumor growth was monitored by caliper measurements and tumor volumes were determined through measuring orthogonal diameters. Estimated tumor volume was calculated based on the formula ½ (Length×Width2), where width is the shorter of the two orthogonal measurements. Treatment was initiated 7 days post tumor cell injection before which, mice were randomized and assigned to treatment or the control group (6 per group). […] Control group were treated with the vehicle only.
Log-phase growing OVCAR-3 cells were injected s.c. into the left flank of each mouse. Tumor growth was monitored by caliper measurements and tumor volumes were determined through measuring orthogonal diameters. Estimated tumor volume was calculated based on the formula ½ (Length×Width2), where width is the shorter of the two orthogonal measurements. Treatment was initiated 7 days post tumor cell injection before which, mice were randomized and assigned to treatment or the control group (6 per group). […] Control group were treated with the vehicle only.
OVCAR-3 cells were injected s.c. into the left flank of each mouse. Tumor growth was monitored by caliper measurements and tumor volumes were determined of orthogonal diameters, and the estimated tumor volume was calculated based on the formula ½ (Length×Width2), where width is the shorter of the two orthogonal measurements. Treatment was initiated 7 days post tumor cell injection before which, mice were randomized and assigned to treatment or the control group (6 per group). […] Control group were treated orally with the vehicle only.
Mice were inoculated in the left flank with 2.5 million log-phase growing human OVCAR-3 cells. Tumor growth was monitored by caliper measurements and tumor volumes were determined through measuring orthogonal diameters. Estimated tumor volume was calculated based on the formula ½ (Length×Width2), where width is the shorter of the two orthogonal measurements. Treatment was initiated 7 days post tumor cell injection before which, mice were randomized and assigned to treatment or the control group (5-6 per group).
Female nude mice (6 weeks old) were purchased from Biological Resources (Faculty of Medicine, University of New South Wales). An institutional animal ethics approval covered all procedures carried out on mice. […] Animals were weighed once weekly while their tumor volumes were determined twice weekly. Tumor growth was monitored by caliper measurements of orthogonal diameters, and the estimated tumor volume was calculated based on the formula ½ (Length×Width^2), where width is the shorter of the two orthogonal measurements. Based on institutional ethics approval, mice were euthanized before the tumor volume reached 500 mm^3. Treatment was initiated on day 8 after tumor cell injection when mice were randomized and assigned to treatment or the control group (6 per group). Monepantel was suspended in sterile 0.5% (w/v) hydroperoxymethyl cellulose (HPMC). Drug was administered i.p. 3 times weekly at 25 or 50 mg/kg. Control group was treated with sterile vehicle (0.5% HPMC). Mice were treated for a period of 3 weeks. Twenty four hours post-last drug administration, mice were euthanized and their tumors excised and frozen at −80° C. until analysis.
In alternative experiments, treatment was initiated on day 8 post tumor cell inoculation when mice were randomized and assigned to one of MPL or vehicle treated groups (5-6 mice per group). MPL was suspended in hydroperoxy methylcellulose (0.5% w/v HPMC), sterilized by sonnicator and administered every other day either intraperitoneally (i.p) or orally as gavage (100 μL).

U87 cells (glioblastoma) = test: SRB cell proliferation assay, U87; type: cell-based; details: for IC50: Homo sapiens, U-87 MG
Experimental: as §1

cancer cell lines = test: SRB cell proliferation assay, range of cancer cell lines (general statements); type: cell-based
Experimental: as §1
In brief, MPL and MPL-SO2 were tested in vitro against a wide range of cancer cell-lines with extensively different disease characteristics. For further detailed studies, human ovarian cancer cell lines OVCAR-3 and A2780 were chosen. Additionally, normal human ovarian surface epithelial cells (HOSE) and were cultured in the presence of MPL (0, 5, 10, 25, 50 and 100 μM) for 72 h. Cell viability was assessed using Trypan blue assay (FIG. 9). Similarly, effect of MPL on the growth of normal epithelial, endothelial, embryonic and fetal cells were investigated (FIG. 10) while cell proliferation was assessed using the SRB assay (FIG. 11). Control (vehicle treated) cells were taken to present 100% proliferation and the MPL treated groups are expressed as percentage of control±SEM. Each drug concentration was tested in quadruplicate and each experiment was repeated at least twice. For statistical comparisons, each drug treated group is compared to the control group using Student's t test. To examine concentration dependent drug effect, analysis of variance (ANOVA) was used. P values are: *=<0.05; **<0.01 and ***=<0.001, **** p<0.0001. […] In order to find out if the MPL effect is mediated through the nicotinic acetyl choline receptor and in particular the nACHR7 subtype, cells were pretreated with antagonists and then exposed to MPL (FIG. 12).

MDA-MB-231 cells = test: SRB cell proliferation assay, MDA-MB-231; type: cell-based; details: Homo sapiens
Experimental: as §1

[4] = system: DU-145 prostate cancer cells; test: SRB cell proliferation assay, DU-145; type: cell-based; details: for IC50: Homo sapiens
Experimental: as §1

U87 glioma cells = test: Autophagy (vacuoles, LC3-II), U87; type: cell-based; details: chemo-resistant U87 glioma cells, concentration-dependent
Text: Autophagy is a characteristic of mTOR inhibition.
(§2) Concentration-dependent conversion of LC3-I to LC3-II confirms the increasing phenomenon of autophagy in these cells.

U251 glioma cells = test: Autophagy (vacuoles), U251; type: cell-based
Text: as §2

nicotinic receptors = test: MPL antiproliferative effect after pre-treatment with nicotinic agonists or antagonists; type: cell-based; details: MPL 5 μM, 72 h; 30 min pre-treatment
Experimental: Cells were pre-treated (30 min) with increasing concentrations of nicotine, carbachol or the receptor antagonists, atropine, mecamylamine, tubocurarine, and α-bungarotoxin. MPL (5 μM) was added and left in the cell culture incubator for 72 h. Each drug concentration was tested in quadruplicate and each experiment was repeated twice. Combine values (mean±SEM) are presented as % control.
In brief, MPL and MPL-SO2 were tested in vitro against a wide range of cancer cell-lines with extensively different disease characteristics. For further detailed studies, human ovarian cancer cell lines OVCAR-3 and A2780 were chosen. Additionally, normal human ovarian surface epithelial cells (HOSE) and were cultured in the presence of MPL (0, 5, 10, 25, 50 and 100 μM) for 72 h. Cell viability was assessed using Trypan blue assay (FIG. 9). Similarly, effect of MPL on the growth of normal epithelial, endothelial, embryonic and fetal cells were investigated (FIG. 10) while cell proliferation was assessed using the SRB assay (FIG. 11). Control (vehicle treated) cells were taken to present 100% proliferation and the MPL treated groups are expressed as percentage of control±SEM. Each drug concentration was tested in quadruplicate and each experiment was repeated at least twice. For statistical comparisons, each drug treated group is compared to the control group using Student's t test. […]

[5] = system: HUVEC (human umbilical vein endothelial cells); test: SRB cell proliferation assay, HUVEC; type: cell-based
Experimental: as §1

IGROV-1 cells = test: SRB cell proliferation assay, IGROV-1; type: cell-based; details: Homo sapiens
Experimental: as §1

c-Myc and cyclin D1 = test: Western blot of c-Myc and cyclin D1 in OVCAR-3 cells; type: cell-based, human; details: 0, 5, 10, 15 and 25 μM MPL for 48 hours
Experimental: In further experiments, after treatment with the indicated concentrations of MPL, cell lysates were prepared and probed with antibodies for c-Myc, cyclin D1, cyclin E, cdk2, cdk4, IGF-1R (Cell Signalling Technology), and (anta Cruz Biotechnology, Australia).

Which IC50 [1] does the source give for `C[C@](C#N)(COc1cc(C#N)ccc1C(F)(F)F)NC(=O)c1ccc(SC(F)(F)F)cc1` [MPL, N-[(1S)-1-Cyano-2-(5-cyano-2-trifluoromethyl-phenoxy)-1-methyl-ethyl]-4-trifluoromethylsulfanyl-benzamide] here?
The IC50 was 34.6 µM.

What about the IC50 (SKOV-3 cells; SKOV-3, ovarian cancer (Table 2), read-out: IC50 in suppressing proliferation) of the same molecule?
Its IC50 is 31.2 ± 0.76 µM.

What about the IC50 (SKOV-3 cells; SKOV-3, ovarian cancer, 72 h, SRB assay (Table 1), read-out: IC50) of the same molecule?
Its IC50 is 29.3 µM.

What about the “viability of normal cells” value [2] of the same molecule?
Its value is “cancer cell orientated”.

And the IC50 ([3]; HEK (Table 2), read-out: IC50 in suppressing proliferation)?
The IC50 was 34.6 ± 0.86 µM.

And the IC50 ([3]; HEK, 72 h, SRB assay (Table 1), read-out: IC50)?
The IC50 was 50.5 µM.

What about the “tumor growth, initial trial” value (OVCAR-3 tumors; 25 mg/kg i.p., three times weekly (trial with 2.5 or 25 mg/kg)) of the same molecule?
The value was “particularly effective”.

What about the tumor growth (OVCAR-3 tumors; 50 mg/kg dose (both i.p. and oral), three times weekly) of the same molecule?
Its tumor growth is “profoundly retarding tumor growth”.

What about the “tumor growth, second trial” value (OVCAR-3 tumors; 50 mg/kg i.p. (trial with 25 and 50 mg/kg)) of the same molecule?
The value was “more effective in retarding tumor growth”.

What about the “doses at which anticancer effects are observed in animal models” value (OVCAR-3 tumors; animal models) of the same molecule?
The value was 5 to 50 mg/kg.

What about the tumor histology (OVCAR-3 tumors; tumor tissue from the in vivo trials) of the same molecule?
The tumor histology was “massive areas of tumor cell death; also recorded: extensive necrosis”.

What about the IC50 (U87 cells (glioblastoma); U87, glioblastoma, 72 h, SRB assay (Table 1), read-out: IC50) of the same molecule?
Its IC50 is 26.2 µM.

What about the IC50 (U87 cells (glioblastoma); U87, glioma (Table 2), read-out: IC50 in suppressing proliferation) of the same molecule?
The IC50 was 18 µM.

And the “replication of U87 cells” value (U87 cells (glioblastoma); highly resistant to chemotherapy)?
The value was “profoundly suppressed”.

And the “antiproliferative action on chemo-resistant cell lines” value (cancer cell lines; ovarian chemo-resistant, glioma temozolimide resistant, breast cancer tamoxifen resistant cells)?
The value was “sensitive”.

What about the “antiproliferative activity, cancer cell lines versus normal cells” value (cancer cell lines; results of Table 2) of the same molecule?
The value was “high antiproliferative activity in cancer cell lines, whereas, normal cells are far less affected”.

What about the IC50 (MDA-MB-231 cells; MDA-MB-231, breast cancer (Table 2), read-out: IC50 in suppressing proliferation) of the same molecule?
The IC50 was 23.8 ± 0.2 µM.

And the IC50 (MDA-MB-231 cells; MDA-MB-231, breast cancer, 72 h, SRB assay (Table 1), read-out: IC50)?
Its IC50 is 24 µM.

What about the IC50 ([4]; DU-145, prostate cancer (Table 2), read-out: IC50 in suppressing proliferation) of the same molecule?
Its IC50 is 23 µM.

What about the IC50 ([4]; DU-145, prostate cancer, 72 h, SRB assay (Table 1), read-out: IC50) of the same molecule?
Its IC50 is 23.5 µM.

And the “effect on DU 145 cells” value ([4]; chemo-resistant, androgen insensitive DU 145)?
The value was “very effective”.

And the “expression of LC3-II (autophagy)” value (U87 glioma cells)?
Its value is “increased expression of LC3-II”.

And the “formation of autophagy (vacuoles)” value (U251 glioma cells)?
The value was “concentration-dependent formation of autophagy”.

And the “MPL-induced inhibition after pre-treatment with nicotinic agonists or antagonists” value (nicotinic receptors)?
Its value is “neither positively nor negatively affected”.

What about the IC50 ([5]; HUVEC = human umbilical vein endothelial cells (Table 3), read-out: IC50 μM HUVEC) of the same molecule?
Its IC50 is 65 µM.

And the IC50 ([5]; Homo sapiens, HUVEC (Table 2), read-out: IC50 in suppressing proliferation)?
Its IC50 is 87 µM.

And the IC50 ([5]; Homo sapiens, HUVEC, 72 h, SRB assay (Table 1), read-out: IC50)?
Its IC50 is 87.8 µM.

What about the IC50 (IGROV-1 cells; IGROV-1, ovarian cancer (Table 2), read-out: IC50 in suppressing proliferation) of the same molecule?
Its IC50 is 4.4 ± 0.27 µM.

And the IC50 (IGROV-1 cells; IGROV-1, ovarian cancer, 72 h, SRB assay (Table 1), read-out: IC50)?
The IC50 was 6.1 µM.

What about the “c-Myc and cyclin D1 expression” value (c-Myc and cyclin D1) of the same molecule?
Its value is “down-regulation of c-Myc and cyclin D1 expression”.

Reference: patent US10053422B2, “Compounds for the treatment of mTOR pathway related diseases” (Pitney Pharmaceuticals Pty Limited, priority 2012, dated 2018)
